According to patent publication US20220339135A1, “COMPOSITIONS AND METHODS FOR MODULATING AN INFLAMMATORY RESPONSE” (Enzychem Lifesciences Corporation, priority 2019, published 2022):

Columns and labels:
[1] = test system: ERK, p38 MAPK, JNK in THP-1 cells; assay: Gemcitabine-induced phosphorylation of ERK, p38 MAPK, JNK, western blot; type: cell-based, human; conditions: inhibitor of NADPH oxidase
Procedure: Total cells were lysed on ice for 30 minutes in RIPA buffer composed of 50 mM Tris-HCl (pH 7.4), 150 mM NaCl, 2 mM EDTA, 1% NP-40, 0.5% sodium deoxycholate, 0.1% SDS, 1 mM phenylmethylsulfonyl fluoride (PMSF), 10 mM sodium fluoride, 2 mM sodium pyrophosphate, 10 mM β-glycerophosphate, 10 mM sodium orthovanadate. Membrane-and-cytoplasmic protein fractions of cultured cells were obtained with Mem-PER Plus Membrane Protein Extraction Kit (Thermo Scientific, MA, USA) according to the manufacturer's instructions. The lysates were centrifuged at 13,000 rpm for 20 minutes at 4° C. and protein concentrations were determined using the Bradford assay (Bio-Rad Laboratories). Denatured samples were mixed with a 5×SDS-PAGE loading buffer and heated to 100° C. for 15 min. The samples were separated on the 10% of SDS-PAGE gel and transferred to polyvinylidene difluoride (PVDF) membranes (Merck Millipore Corporation, MA, USA). Membranes were blocked with 5% non-fat milk in PBS (10 mM Tris-HCl, pH7.5, 150 mM NaCl) for 1 h and probed with primary antibodies against ERK1/2, phospho-ERK1/2, P38, phospho-P38, SAPK/JNK, phospho-SAPK/JNK, Na, K-ATPase, α-Tubulin, and β-actin from Cell Signaling Technology (MA, USA), Rac1 from Merck Millipore Corporation), p47phox and phospho-p47phox from Invitrogen, adenosine receptor A1 from Abcam, β arrestin-1 from Santa Cruz Technology for overnight at 4° C. The blots were washed and incubated with appropriate secondary antibodies and visualized using Pierce ECL Western Blotting Substrate (Thermo Scientific).

[2] = test system: LPS-induced acute lung injury; assay: LPS-induced acute lung injury (ALI) in mice; type: in vivo; conditions: LPS-treated mice, co-treatment
[3] = test system: intracellular calcium in dHL-60 cells; assay: Fluo-4 calcium assay; type: cell-based, human
Procedure: Human leukemia line (HL-60) cells were differentiated (dHL-60) to neutrophil-like cells in the culture medium with the addition of 1.3% DMSO (Sigma) for 5 days in a humidified atmosphere at 37° C. without changing the medium. dHL-60 cells (2×10^5 cells/mL) were loaded with 5 μM fluo-4 AM for 45 minutes and washed three times with warmed modified (37° C.) HBSS buffer (137.93 mM NaCl, 5.33 mM KCl, 2 mM CaCl2), 1 mM MgSO4, 2.38 mM HEPES, 5.5 mM glucose, pH to 7.4). The cells were seeded on black-walled 96-well plates and then treated with vehicle (0.1% DMSO), ionomycin (5 μM; positive control) or PLAG (100 μg/mL) just before measurement. Baseline fluorescence was measured before treatment, and fluorescence was read every 20 s for 700 s using an excitation wavelength of 494 nm, an emission wavelength of 516 nm in a FlexStation 3 microplate reader (Molecular Devices). Fluorescence values were reported as F/Fo according to the calculation: [ΔF=(494 nm)f/(516 nm)f−(494 nm)0/(516 nm)0]. For studies in 0 mM external calcium, the cells were loaded as mentioned earlier. After being loaded, the cells were washed four times with calcium-free HBSS. The remainder of the study was carried out in calcium-free HBSS.
(§1) HL-60 cells were differentiated (dHL-60) to neutrophil-like cells in the culture medium with the addition of 1.3% DMSO (Sigma) for 5 days in a humidified atmosphere at 37° C. without changing the medium. dHL-60 cells (2×10^5 cells/mL) were loaded with 5 μM fluo-4 AM for 45 minutes and washed three times with warmed modified (37° C.) HBSS buffer (137.93 mM NaCl, 5.33 mM KCl, 2 mM CaCl2, 1 mM MgSO4, 2.38 mM HEPES, 5.5 mM glucose, pH to 7.4). […] Baseline fluorescence was measured before treatment, and fluorescence was read every 20 seconds for 700 seconds using an excitation wavelength of 494 nm, an emission wavelength of 516 nm in a FlexStation 3 microplate reader (Molecular Devices). Fluorescence values were reported as F/Fo according to the calculation: [ΔF=(494 nm)f/(516 nm)f−(494 nm)0/(516 nm)0]. […]
as §1, with “s” for “seconds”, “Devices).” for “Devices). Fluorescence values were reported as F/Fo according to the calculation: [ΔF=(494 nm)f/(516 nm)f−(494 nm)0/(516 nm)0].”

[4] = test system: gemcitabine-induced neutrophil extravasation; assay: Gemcitabine-induced neutropenia mice model; type: in vivo
Procedure: Male BALB/c mice were randomly divided into 3 groups; normal control group (n=5), gemcitabine only group (n=5) and gemcitabine with PLAG group (n=5). The mice were intraperitoneally (i.p.) injected with 50 mg/kg gemcitabine to induce neutropenia. PLAG was diluted with phosphate-buffered saline (PBS) and then orally administrated at a dose of 50 or 250 mg/kg/day. The normal control group was administered PBS only during the experiment. The whole blood was collected from the orbital sinuses using capillary tubes (Kimble Chase Life Science and Research Products LLC, FL, USA) and collection tubes containing K3E-K3EDTA (Greiner Bio-One International, Germany). To obtain peritoneal cells, 5 ml of cold PBS was injected to the left side of the peritoneal wall using a 5 mL syringe, and the fluid was aspirated from the peritoneum. The collected cells were counted by complete blood count (CBC) analysis using Mindray BC-5300 auto-hematology analyzer (Shenzhen Mindray Biomedical Electronics, China). To establish a 4T1 tumor-bearing mice model, the murine 4T1 mammary carcinoma cells (1×10^5) were subcutaneously injected on the right side of the abdomen. On the 10th day after tumor injection, the mice were intraperitoneally (i.p.) injected with 50 mg/kg gemcitabine, and the next day the whole blood was collected from the orbital sinuses as mentioned above before sacrificing the animals to obtain different organs of the body for RT-PCR.
PLAG inhibits gemcitabine-induced neutrophil extravasation into the peritoneum by down-regulating the expression of adhesion molecules in normal BALB/c mice. Male BALB/c mice of 8-10 weeks of age were orally administrated with 50 or 250 mg/kg of PLAG and then were intraperitoneally injected with 50 mg/kg gemcitabine. After 24 h, blood samples were collected by retro-orbital bleeding, and the number of blood neutrophils was determined by CBC analysis. Each group contains five mice. The population of blood neutrophils was analyzed by flow cytometry. Red cell-lysed whole blood was stained with FITC-conjugated anti-Ly6G and PE-Cy7-conjugated anti-CD11b antibodies to determine the circulating neutrophil population. Ly6G+/CD11b+ cells were further stained with APC-conjugated anti-L-selectin and APC-conjugated anti-LFA-1 antibodies and were analyzed by flow cytometry to determine the expression of adhesion molecules.
The mice were intraperitoneally (i.p.) injected with 50 mg/kg gemcitabine to induce neutropenia. PLAG was diluted with phosphate-buffered saline (PBS) and then orally administrated at a dose of 50 or 250 mg/kg/day. The normal control group was administered PBS only during the experiment. At 15 h after gemcitabine treatment, the whole blood was collected from the orbital sinuses using capillary tubes (Kimble Chase Life Science and Research Products LLC, FL, USA) and collection tubes containing K3E-K3EDTA (Greiner Bio-One International, Kremsmünster, Austria). To obtain peritoneal cells, 5 ml of cold PBS was injected to the left side of the peritoneal wall using a 5 mL syringe, and the fluid was aspirated from the peritoneum. The collected cells were counted by complete blood count (CBC) analysis using Mindray BC-5300 auto-hematology analyzer (Shenzhen Mindray Biomedical Electronics, Guangdong Sheng, China).
To establish a 4T1 tumor-bearing mice model, the murine 4T1 mammary carcinoma cells (1×105) were subcutaneously injected on the right side of the abdomen. On the 10th day after tumor injection, the mice were intraperitoneally (i.p.) injected with 50 mg/kg gemcitabine, and the next day the whole blood was collected from the orbital sinuses as mentioned above before sacrificing the animals to obtain different organs of the body.

[5] = test system: citrullinated histone H3 in dHL-60 cells; assay: Histone H3 citrullination, western blot; type: cell-based, human; conditions: time-dependent
Procedure: dHL-60 cells were lysed on ice for 30 minutes in RIPA buffer composed of 50 mM Tris-HCl (pH 7.4), 150 mM NaCl, 2 mM EDTA, 1% NP-40, 0.5% sodium deoxycholate, 0.1% SDS, 1 mM phenylmethylsulfonyl fluoride (PMSF), 10 mM sodium fluoride, 2 mM sodium pyrophosphate, 10 mM β-glycerophosphate, 10 mM sodium orthovanadate. The lysates were centrifuged at 13,000 rpm for 20 minutes at 4° C. and protein concentrations were determined using the Bradford assay (Bio-Rad Laboratories). Denatured samples were mixed with a 5×SDS-PAGE loading buffer and heated to 100° C. for 15 min. The samples were separated on the 10% of SDS-PAGE gel and transferred to polyvinylidene difluoride (PVDF) membranes (Merck Millipore Corporation, MA, USA). Membranes were blocked with 5% non-fat milk in PBS (10 mM Tris-HCl, pH7.5, 150 mM NaCl) for 1 h and probed with primary antibodies against histone H3 (citrulline R2+R8+R17) from abcam (USA) and β-actin from cell signaling (USA) for overnight at 4° C. The blots were washed and incubated with appropriate secondary antibodies and visualized using Pierce™ ECL Western Blotting Substrate (Thermo Scientific).

[6] = normal BALB/c mice, 15 hours after gemcitabine 50 mg/kg i.p.

`c1ccc2c(c1)[I+]c1ccccc1-2` [DPI, diphenyleneiodonium, reference compound] was tested, and the “gemcitabine-induced phosphorylation of ERK, p38 MAPK and JNK” value [1] was “dose-dependently decreased”.
In the case of `CCCCCC=CCC=CCCCCCCCC(=O)OC(CO)CO` [HLH, hydroxyl linoleic hydroxyl glycerol, reference compound], the “number of neutrophils in BALF” value [2] was “no effect”.
For `CCCCC/C=C\C/C=C\CCCCCCCC(=O)O` [LA, linoleic acid, reference compound], the “number of neutrophils in BALF” value [2] was “no effect”.
In the case of `CCCCCCCCCCCCCCCC(=O)O` [PA, palmitic acid, reference compound], the “number of neutrophils in BALF” value [2] was “no effect”.
In the case of `COc1ccc2c(c1)CC[C@@H]1[C@@H]2CC[C@]2(C)[C@@H](NCCCCCCN3C(=O)C=CC3=O)CC[C@@H]12` [U73122, reference compound], the “PLAG-induced intracellular calcium increase” value ([3]; PLC inhibitor, dose-dependent) was “inhibited”.
For `Nc1ccn([C@@H]2O[C@H](CO)[C@@H](O)C2(F)F)c(=O)n1` [gemcitabine, reference compound], the “mRNA expression of MIP-2 in tissues” value ([4]; 4T1 tumor-bearing mice, gemcitabine 50 mg/kg i.p.) was “increases”, the “migration of circulating neutrophils into the peritoneal cavity” value ([4]; 4T1 tumor-bearing mice, one day after gemcitabine 50 mg/kg i.p.) was “induced the migration” and the circulating neutrophils [4, 6] was “significant reduction”. The “neutrophils in the peritoneal cavity” value [4, 6] was “increase”.
`C[C@H](CCC(=O)O)C[C@H](C)C[C@H](C)C(=O)/C=C(\O)[C@H](C)C[C@H](C)C/C=C/[C@@H](C)[C@@H](O)[C@@H](C)[C@@H](O)C[C@@H]1CC[C@@](C)([C@H]2CC[C@@](C)([C@@H](C)O)O2)O1` [ionomycin, reference compound] was tested, and the “histone H3 citrullination” value [5] was “induced” and the “cytosolic calcium of dHL-60 cells” value ([3]; PLAG 100 μg/mL, ionomycin 5 μM) was “increased”.
